Test results taken from patent US7785705B2, “Flower thinning agent” (priority 2002, dated 2010).

Legend:
[1] = test system: pear (Kosui) tree; experiment: Flower thinning effect on pear (Kosui) tree at low air temperature and bad weather; details: low air temperature at flowering, bad weather
From the text: Using a pear (Kosui) tree, flower thinning effect was confirmed. That is, using the aforementioned pear tree, the flower thinning agent of Example 1 was spread at a concentration indicated in Table 10 two times, at a flowering rate of 30% and 80%. In this respect, at the present experiment, an air temperature at flowering was low, and weather was bad. Therefore, a scatter in flowering was greater than usual. […] Treatment was every branch treatment, and the agent was spread with a back loading sprayer.
(§1) Assessment was expressed as a remaining fruit rate relative to the number of flowering. Regarding medicine damage, results of observation of a leaf state such as defoliation, discolored leaf and deformed leaf were expressed by the following five stages.
According to the same manner as that of Application Example 64 except that any of the flower thinning agents of Examples 4, 5, 7, 9, 15 and 21, and Comparative Examples 1, 4, 8 and 10 was used in place of the flower thinning agent of Example 1, an experiment was performed.
(§2) An effective ingredient concentration was based on a solid matter weight of a lime and sulfur agent.
(§3) An effective ingredient concentration was based on a solid matter weight of itaconic acid.
(§4) An effective ingredient concentration was based on a solid matter weight of high purity lecithin.
An effective ingredient concentration was based on a solid matter weight of calcium formate.

[2] = test system: pear (Kosui) tree; experiment: Flower thinning effect on pear (Kosui) tree, agent spread two times, at a flowering rate of 30% and 80%; assay type: in vivo
From the text: Using a pear (Kosui) tree, flower thinning effect was confirmed. That is, using the aforementioned pear tree, the flower thinning agent of Example 1 was spread at a concentration indicated in Table 6 two times, at a flowering rate of 30% and 80%. […] Treatment was every branch treatment, and the agent was spread with a back loading sprayer.
as §1, §2, §3, §4

[3] = test system: apple (Fuji) tree; experiment: Flower thinning effect on apple (Fuji) tree, agent spread two times, one day and three days after full blooming of a central flower; assay type: in vivo
From the text: Using an apple (Fuji) tree, flower thinning effect was confirmed. […] Assessment was expressed by a remaining fruit rate regarding a central flower and a lateral flower.

[4] = test system: grape (King Dela) tree; experiment: Flower thinning effect on grape (King Dela) tree, agent spread two times, at a flowering rate of 30% and 80%; assay type: in vivo
From the text: Using a grape (King Dela) tree, flower thinning effect was confirmed.
Assessment was expressed as a remaining fruit rate regarding the number of flowering.

[5] = effective ingredient conc. 0.33%
[6] = effective ingredient conc. 1.00%

| SMILES | Remaining fruit rate (%) ([1]; effective ingredient conc. 0.15%) | Remaining fruit rate (%) ([1]; effective ingredient conc. 0.45%) | Remaining fruit rate (%) [2, 5] [%] | Remaining fruit rate (%) [2, 6] [%] | Fruition rate (%) Central flower [3, 5] [%] | Fruition rate (%) Lateral flower [3, 5] [%] | Fruition rate (%) Central flower [3, 6] [%] | Fruition rate (%) Lateral flower [3, 6] [%] | Remaining fruit rate (%) [1, 5] [%] | Remaining fruit rate (%) [1, 6] [%] | Remaining fruit rate (%) [4, 5] [%] | Remaining fruit rate (%) [4, 6] [%] |
| --- | --- | --- | --- | --- | --- | --- | --- | --- | --- | --- | --- | --- |
| O=C[O-].O=C[O-].[Ca+2] [calcium formate] | 79.9 | 72.3 | – | – | – | – | – | – | – | – | – | – |
| C=C(CC(=O)O)C(=O)O [itaconic acid] | – | – | 57.9 | 53.3 | 88.2 | 57.9 | 85.4 | 50.3 | 70.0 | 63.9 | 57.5 | 53.0 |
